Measured values from patent publication US4918056A, “2-substituted arabinopyranosyl nucleosides and nucleotides” (priority 1986, dated 1990).

Legend:
[1] = test system: L1210 leukemia cells; experiment: L1210 leukemia cell growth inhibition (48 hr, Coulter counter); assay type: cell-based, mouse; settings: Mus musculus, L1210, RPMI 1640, 10% fetal calf serum
Procedure: Compounds 85024, 85023, 85058, 85027 and 85060 having a glycosidic linkage between the 2'carbon of the arabinose (in pyranose configuration) and base were evaluated for their growth inhibitory action on L1210 leukemia cells maintained in RPMI 1640 medium supplemented with 10% fetal calf serum and 16 mM HEPES, pH 7.2. Cellular growth inhibition was determined by incubating […] for 48 hr in 2 ml of media containing varying concentrations of drugs. Cell growth inhibition (50% growth inhibitory concentration, IC50) was determined after counting cells with a Coulter counter (Bernacki et al., Cancer Res. 45, 695, 1985). Drug concentrations which inhibited cell growth by 50% (IC50) are listed for each compound in Table 1.

[2] = test system: L1210/0 leukemia; experiment: Therapeutic activity against i.p. inoculated L1210/0 leukemic mice; assay type: in vivo, mouse (DBA/2N female); settings: for Mean ± SD survival: control 6.7 ± 0.1; for Median survival: control 7
Procedure: The control group consisted of 20 mice injected with a 0.2 ml suspension of 0.5% Tween 80 in saline.

[3] = test system: L1210/ara-C leukemia; experiment: Therapeutic activity in DBA/2N mice with ara-C resistant L1210 leukemia; settings: 100 mkd × 5 i.p.
Procedure: In conducting the evaluations, the activity was tested against intraperitoneal (i.p.) implanted leukemia in mice.
DBA/2N female mice (20 g) were implanted i.p. with 1×10^6 L1210 leukemia cells on day 0. Mice were weighed and inspected for tumor growth and survival daily. […] Dosages varied from 1 to 800 mg/kg/day (mkd).
Survival time was measured in days after tumor implantation. % ILS (increase in life span) was based on mean survival.
Testing was followed as described in the NCI protocol and evaluation by comparison of median survival time (ST) of the treated animals to that of the control animals by the percentage increase in % ILS.
Drug resistant L1210 leukemia cell sublines were obtained from the National Cancer Institute. […] Eight mice were used as controls and five mice for each drug dosage group. Drugs were administered i.p. once per day on days 1, 2, 3, 4 and 5.

## COC1OC[C@@H](OC(C)=O)[C@@H](OC(C)=O)[C@]1(F)n1ccc(=O)[nH]c1=O (stereo partly drawn) [compound 85024, Methyl 3,4-di-0-acetyl-2-deoxy-2(R)-[1H,3H-2,4-dioxo-1-pyrimidinyl]-2-fluoro-α-D-arabinopyranoside [5a] and methyl 3,4-di-0-acetyl-2-deoxy-2(R)-[1H,3H-2,4-dioxo-1-pyrimidinyl]-2-fluoro-β-D-arabinopyranoside [6a]]
[1]
  IC50: 55 µM
[2]; 50 mkd × 5 i.p.
  Mean Animal Weight (on the day of death): 23.4 g
  Survival Range: 7 to 8 days
  Mean ± SD survival: 7.2 ± 0.2 days
  Median survival: 7 days
[2]; 50 mkd × 5 i.p., N.S.
  % ILS (increase in life span): 7%
[2]; 100 mkd × 5 i.p.
  Mean Animal Weight (on the day of death): 24.0 g
  Survival Range: 8-8 days
  Mean ± SD survival: 8.0 ± 0 days
  Median survival: 8 days
[2]; 100 mkd × 5 i.p., N.S.
  % ILS (increase in life span): 19%
[2]; 200 mkd × 5 i.p.
  Mean Animal Weight (on the day of death): 22.0 g
  Survival Range: 8 to 10 days
  Mean ± SD survival: 8.8 ± 0.2 days
  Median survival: 9 days
[2]; 200 mkd × 5 i.p., p < 0.01
  % ILS (increase in life span): 31%
[2]; 400 mkd × 5 i.p.
  Mean Animal Weight (on the day of death): 18.8 g
  Survival Range: 9 to 11 days
  Mean ± SD survival: 9.9 ± 0.2 days
  Median survival: 10 days
[2]; 400 mkd × 5 i.p., p < 0.01
  % ILS (increase in life span): 48%
[2]; 500 mkd × 5 i.p.
  Mean Animal Weight (on the day of death): 17.3 g
  Survival Range: 10 to 11 days
  Mean ± SD survival: 10.4 ± 0.2 days
  Median survival: 10 days
[2]; 500 mkd × 5 i.p., p < 0.01
  % ILS (increase in life span): 55%
[2]; 600 mkd × 5 i.p.
  Mean Animal Weight (on the day of death): 16.8 g
  Survival Range: 7 to 11 days
  Mean ± SD survival: 9.4 ± 0.8 days
  Median survival: 10 days
[2]; 600 mkd × 5 i.p., p < 0.5
  % ILS (increase in life span): 40%
[2]; 700 mkd × 5 i.p.
  Mean Animal Weight (on the day of death): 16.6 g
  Survival Range: 4 to 7 days
  Mean ± SD survival: 6.0 ± 0.6 days
  Median survival: 7 days
[2]; 700 mkd × 5 i.p., N.S.
  % ILS (increase in life span): -10%
[2]; 800 mkd × 5 i.p.
  % ILS (increase in life span): -70%
  Mean Animal Weight (on the day of death): 19.5 g
  Survival Range: 2-2 days
  Mean ± SD survival: 2.0 ± 0 days
  Median survival: 2 days
[2]; 5 day i.p. schedule, 1 dose per day days 1-5
  dose of maximal therapeutic efficacy: 500 mg/kg/day
[2]; i.p. days 1-5, 800 mkd
  mortality due to drug toxicity: eventual mortality due to drug toxicity
[2]; i.p. days 1-5, above 500 mkd, evidenced by increased weight loss
  host toxicity: increased host toxicity
[3]
  Mean Animal Weight: 20.7 g
